Tests used:
[1] = tested on: common sorghum (SORVU); assay: Postemergence greenhouse trial, % visual injury on common sorghum; type: in vivo, Sorghum vulgare; conditions: SORVU
Procedure: (§1) Seeds of the desired test plant species were planted in Sun Gro MetroMix® 306 planting mixture, which typically has a pH of 6.0 to 6.8 and an organic matter content of about 30 percent, in plastic pots with a surface area of 103.2 square centimeters (cm^2). When required to ensure good germination and healthy plants, a fungicide treatment and/or other chemical or physical treatment was applied. The plants were grown for 7-36 days (d) in a greenhouse with an approximate 14-hour (h) photoperiod which was maintained at about 23° C. during the day and 22° C. during the night. Nutrients and water were added on a regular basis and supplemental lighting was provided with overhead metal halide 1000-Watt lamps as necessary. The plants were employed for testing when they reached the second or third true leaf stage.
(§2) Weighed amounts of technical material were dissolved in a volume of 97:3 volume per volume (v/v) acetone/dimethyl sulfoxide (DMSO) to stock solutions. […] The concentrated stock solutions were diluted with an aqueous mixture of 1.5% v/v of Agri-dex crop oil concentrate to provide the appropriate application rates. Compound requirements are based upon a 12 milliliter (mL) application volume at a rate of 187 liters per hectare (L/ha). Stocks solutions of the safeners were prepared following the same procedure. Spray solutions of the safeners and experimental compound mixtures were prepared by adding the stock solutions to the appropriate amount of dilution solution to form a 12 mL spray solution in two-way combinations. Formulated compounds were applied to the plant material with an overhead Mandel track sprayer equipped with 8002E nozzles calibrated to deliver 187 L/ha over an application area of 0.503 square meters (m^2) at a spray height of 18 inches (43 centimeters (cm)) above average plant canopy. Control plants were sprayed in the same manner with the solvent blank. All herbicide application (component a) rates are in g ae/ha and all safener (component b) rates are in g ai/ha.
(§3) The treated plants and control plants were placed in a greenhouse as described above and watered by sub-irrigation to prevent wash-off of the test compounds. After 20-22 d, the condition of the test plants as compared with that of the control plants was determined visually and scored on a scale of 0 to 100 percent where 0 corresponds to no injury and 100 corresponds to complete kill. The condition of the test plants was compared with that of the control plants as determined visually and scored on a scale of 0 to 100 percent, where 0 corresponds to no injury and 100 corresponds to complete kill. Colby's equation was used to determine the herbicidal effects expected from the mixtures. […]
(§4) The safener cloquintocet-acid and a number of agriculturally acceptable esters and salts (-mexyl, -dimethylammonium salt and -triethylammonium salt) were combined in varying ratios with compound 1 and applied to spring wheat (TRZAS), winter wheat (TRZAW), and spring barley (HORVS), and the phytotoxicity of the herbicidal compositions was measured. In addition, the efficacy of the herbicidal composition on pigweed (AMARE, Amaranthus retroflexus), nutsedge (CYPES, Cyperus esculentus), common sunflower (HELAN, Helianthus annuus), and common sorghum (SORVU, Sorghum vulgare).

[2] = tested on: common sunflower (HELAN); assay: Postemergence greenhouse trial, % visual injury on common sunflower; type: in vivo, Helianthus annuus
Procedure: as §1, §2
(§5) The treated plants and control plants were placed in a greenhouse as described above and watered by sub-irrigation to prevent wash-off of the test compounds. After 20-22 d, the condition of the test plants as compared with that of the control plants was determined visually and scored on a scale of 0 to 100 percent where 0 corresponds to no injury and 100 corresponds to complete kill. The condition of the test plants was compared with that of the control plants as determined visually and scored on a scale of 0 to 100 percent, where 0 corresponds to no injury and 100 corresponds to complete kill. Colby's equation was used to determine the herbicidal effects expected from the mixtures.
as §4

[3] = tested on: corn/maize (ZEAMX); assay: Postemergence greenhouse trial, % visual injury on corn/maize; type: in vivo, Zea mays; conditions: for % visual injury, observed (Ob): ZEAMX
Procedure: as §1, §2, §5
(§6) The safener cloquintocet-mexyl was combined with compound 1, compound 2, compound 4, compound 5, and compound 6, and applied to corn/maize (ZEAMX) and spring wheat (TRZAS) and the phytotoxicity of the herbicidal compositions was measured. In addition, the efficacy of the herbicidal composition on velvetleaf (ABUTH, Abutilon theophrasti), pigweed (AMARE, Amaranthus retroflexus), winter rape (BRSNW, Brassica napus), lambsquarters (CHEAL, Chenopodium album), thistle (CIRAR, Cirsium arvense), nutsedge (CYPES, Cyperus esculentus), poinsettia (EPHHL, Euphorbia heterophylla), wild buckwheat (POLCO, Polygonum convolvulus), giant foxtail (SETFA, Setaria faberi), and chickweed (STEME, Stellaria media) was evaluated. […]

[4] = tested on: winter wheat (TRZAW); assay: Postemergence greenhouse trial, % visual injury on winter wheat; type: in vivo, Triticum aestivum; conditions: TRZAW
Procedure: as §1, §2, §5
(§7) The safener cloquintocet-mexyl was combined with compound 1, compound 2, compound 3, compound 7, compound 8, compound 9, compound 10, compound 11, compound 12, compound 13, compound 14, compound 15, compound 16, compound 17, compound 18, compound 19, and compound 20, and applied to spring wheat (TRZAS), winter wheat (TRZAW), and spring barley (HORVS) and the phytotoxicity of the herbicidal compositions was measured. […]

[5] = tested on: pigweed (AMARE); assay: Postemergence greenhouse trial, % visual injury on pigweed; type: in vivo, Amaranthus retroflexus; conditions: for % visual injury, observed (Ob): AMARE
Procedure: as §1, §2, §5, §6
(§8) The safener cloquintocet-acid and a number of agriculturally acceptable esters and salts (-mexyl, -dimethylammonium salt and -triethylammonium salt) were combined in varying ratios with compound 1 and applied to spring wheat (TRZAS), winter wheat (TRZAW), and spring barley (HORVS), and the phytotoxicity of the herbicidal compositions was measured. […]

[6] = tested on: nutsedge (CYPES); assay: Postemergence greenhouse trial, % visual injury on nutsedge; type: in vivo, Cyperus esculentus; conditions: for % visual injury, observed (Ob): CYPES
Procedure: as §1, §2, §5, §6, §8

[7] = tested on: wild buckwheat (POLCO); assay: Postemergence greenhouse trial, % visual injury on wild buckwheat; type: in vivo, Polygonum convolvulus; conditions: alone, 35 g/ha
Procedure: as §1, §2, §5
(§9) The safener cloquintocet-mexyl was combined with compound 1, compound 2, compound 4, compound 5, and compound 6, and applied to corn/maize (ZEAMX) and spring wheat (TRZAS) and the phytotoxicity of the herbicidal compositions was measured. In addition, the efficacy of the herbicidal composition on velvetleaf (ABUTH, Abutilon theophrasti), pigweed (AMARE, Amaranthus retroflexus), winter rape (BRSNW, Brassica napus), lambsquarters (CHEAL, Chenopodium album), thistle (CIRAR, Cirsium arvense), nutsedge (CYPES, Cyperus esculentus), poinsettia (EPHHL, Euphorbia heterophylla), wild buckwheat (POLCO, Polygonum convolvulus), giant foxtail (SETFA, Setaria faberi), and chickweed (STEME, Stellaria media) was evaluated.
as §7

[8] = tested on: lambsquarters (CHEAL); assay: Postemergence greenhouse trial, % visual injury on lambsquarters; type: in vivo, Chenopodium album; conditions: Chenopodium album, post-emergence; alone, 35 g/ha; read-out: % visual injury, Ob
Procedure: as §1, §2, §5, §9, §7

[9] = tested on: winter rape (BRSNW); assay: Postemergence greenhouse trial, % visual injury on winter rape; type: in vivo, Brassica napus; conditions: Brassica napus, post-emergence; alone, 35 g/ha; read-out: % visual injury, Ob
Procedure: as §1, §2, §5, §6

[10] = tested on: thistle (CIRAR); assay: Postemergence greenhouse trial, % visual injury on thistle; type: in vivo, Cirsium arvense; conditions: Cirsium arvense, post-emergence; alone, 35 g/ha; read-out: % visual injury, Ob
Procedure: as §1, §2, §5, §6

[11] = tested on: velvetleaf (ABUTH); assay: Postemergence greenhouse trial, % visual injury on velvetleaf; type: in vivo, Abutilon theophrasti; conditions: alone, 35 g/ha
Procedure: as §1, §2, §5, §9, §7

[12] = tested on: spring wheat (TRZAS); assay: Postemergence greenhouse trial, % visual injury on spring wheat; type: in vivo, Triticum aestivum; conditions: alone, 35 g/ha
Procedure: as §1, §2, §5, §9, §7

[13] = tested on: poinsettia (EPHHL); assay: Postemergence greenhouse trial, % visual injury on poinsettia; type: in vivo, Euphorbia heterophylla; conditions: alone, 35 g/ha
Procedure: as §1
Weighed amounts of technical material were dissolved in a volume of 97:3 volume per volume (v/v) acetone/dimethyl sulfoxide (DMSO) to stock solutions. […] The concentrated stock solutions were diluted with an aqueous mixture of 1.5% v/v of Agri-dex crop oil concentrate to provide the appropriate application rates. Compound requirements are based upon a 12 milliliter (mL) application volume at a rate of 187 liters per hectare (L/ha). Stocks solutions of the safeners were prepared following the same procedure. […]
as §3, with “kill.” for “kill. Colby's equation was used to determine the herbicidal effects expected from the mixtures.”
as §6

Structure (SMILES) | % visual injury, observed (Ob) ([1]; safener alone 2.5 g/ha) [%] | % visual injury, observed (Ob) ([1]; safener alone 5 g/ha) [%] | % visual injury, observed (Ob) ([1]; safener alone 10 g/ha) [%] | % visual injury, observed (Ob) ([1]; safener alone 20 g/ha) [%] | % visual injury, observed (Ob) ([2]; safener alone 2.5 g/ha) [%] | % visual injury, observed (Ob) ([2]; safener alone 5 g/ha) [%] | % visual injury, observed (Ob) ([2]; safener alone 10 g/ha) [%] | % visual injury, observed (Ob) ([2]; safener alone 20 g/ha) [%] | % visual injury, observed (Ob) ([3]; safener alone 2.5 g/ha) [%] | % visual injury, observed (Ob) ([3]; safener alone 5 g/ha) [%] | % visual injury, observed (Ob) ([3]; safener alone 10 g/ha) [%] | % visual injury, observed (Ob) ([3]; safener alone 20 g/ha) [%] | % visual injury, observed (Ob) ([4]; safener alone 2.5 g/ha) [%] | % visual injury, observed (Ob) ([4]; safener alone 5 g/ha) [%] | % visual injury, observed (Ob) ([4]; safener alone 10 g/ha) [%] | % visual injury, observed (Ob) ([4]; safener alone 20 g/ha) [%] | % visual injury, observed (Ob) ([5]; safener alone 2.5 g/ha) [%] | % visual injury, observed (Ob) ([5]; safener alone 5 g/ha) [%] | % visual injury, observed (Ob) ([5]; safener alone 10 g/ha) [%] | % visual injury, observed (Ob) ([5]; safener alone 20 g/ha) [%] | other results
O=C(O)COc1ccc(Cl)c2cccnc12 [CQC-acid] | 0 | 0 | 0 | 0 | 0 | 0 | 0 | 0 | 0 | 0 | 0 | 0 | 0 | 0 | 0 | 0 | 0 | 0 | 0 | 0 | % visual injury, observed (Ob) ([6]; safener alone 2.5 g/ha): 0%; % visual injury, observed (Ob) ([6]; safener alone 5 g/ha): 0%; % visual injury, observed (Ob) ([6]; safener alone 10 g/ha): 0%; % visual injury, observed (Ob) ([6]; safener alone 20 g/ha): 0%
COCC(=O)n1ccc2ccc(-c3nc(C(=O)OC)c(Cl)c(N)c3F)c(F)c21 [compound 6] | – | – | – | – | – | – | – | – | – | – | – | – | – | – | – | – | – | – | – | – | % visual injury, Ob [7]: 97%; pest or weed control at 35 g/ha [8]: 100%; plant injury at 35 g/ha [9]: 75%; % visual injury, Ob ([3]; alone, 35 g/ha): 25%; pest or weed control at 35 g/ha [10]: 75%; % visual injury, Ob [11]: 80%; % visual injury, Ob [12]: 35%; % visual injury, Ob [13]: 100%; pest or weed control at 35 g/ha ([5]; Amaranthus retroflexus, post-emergence, alone, 35 g/ha, read-out: % visual injury, Ob): 100%; % visual injury, Ob ([6]; alone, 35 g/ha): 0%
CNC.O=C(O)COc1ccc(Cl)c2cccnc12 [CQC-DMA] | 0 | 0 | 0 | 0 | 0 | 0 | 0 | 0 | 0 | 0 | 0 | 0 | 0 | 0 | 0 | 0 | 0 | 0 | 0 | 0 | % visual injury, observed (Ob) ([6]; safener alone 2.5 g/ha): 0%; % visual injury, observed (Ob) ([6]; safener alone 5 g/ha): 0%; % visual injury, observed (Ob) ([6]; safener alone 10 g/ha): 0%; % visual injury, observed (Ob) ([6]; safener alone 20 g/ha): 0%
